This note sets out measurements from patent publication US20080051327A1, “Crystals of an Aurora-A Tpx2 Complex, Tpx2 Binding Site of Aurora-A, Aurora-A Ligands and Their Use” (EMBL, priority 2003, published 2008).

The IC50 is the point on the concentration scale where inhibition reaches its midpoint.

Experiment [1] addresses T1, Aurora + TPX2 (Homo sapiens, UniProt O14965).
T1 sequence (O14965 1-403): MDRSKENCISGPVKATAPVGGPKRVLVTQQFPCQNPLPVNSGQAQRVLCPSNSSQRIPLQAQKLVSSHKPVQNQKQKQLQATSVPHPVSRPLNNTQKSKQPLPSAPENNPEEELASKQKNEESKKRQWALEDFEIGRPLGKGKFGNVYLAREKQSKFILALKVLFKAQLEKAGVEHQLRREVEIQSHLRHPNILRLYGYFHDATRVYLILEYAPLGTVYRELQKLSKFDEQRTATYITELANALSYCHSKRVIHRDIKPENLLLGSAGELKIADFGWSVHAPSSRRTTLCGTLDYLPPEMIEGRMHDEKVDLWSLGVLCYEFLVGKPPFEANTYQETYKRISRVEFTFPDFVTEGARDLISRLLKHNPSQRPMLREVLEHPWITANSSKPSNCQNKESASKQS
The experiment is described as follows: luminescence ATP detection kinase assay (EasyLite-Kinase), Aurora + TPX2. It is filed as biochemical. Conditions: 150 nM Aurora with TPX2, 20 μM ATP, 100 μM Kemptide, 20 min room temperature. The method, then: (§1) The ability of compounds (7) and (12) to inhibit Aurora A was tested in a luminescence ATP detection assay system for kinase applications. Briefly, the compound of the present invention was added to a solution of Aurora A in HEPES buffer (150 nM Aurora +/− TPX2, 25 mM HEPES pH 7.4, 5 mM MgCl2, 0.01% Tween 20; 0.1% BSA; 100 μM Kemptide [Promega Corporation, Madison, Wis.]); final assay concentrations). The addition of an ATP solution (20 μM final concentration) initiated the reaction. The reaction was carried out for 20 min at room temperature and terminated by the addition of equal volumes of EasyLite Solution (Perkin Elmer Corporation, Boston, Mass.) followed by monitoring the luminescence in a Wallac Envision plate reader (Perkin Elmer Corporation, Boston, Mass.). The EasyLite-Kinase® is an ATP monitoring system based on firely (Photinus pyralis) luciferase for the evaluation of kinase activity. The system relies on the consumption of ATP during a kinase reaction and is commercially available.

Experiment [2] deals with protein kinase A, PKA (Homo sapiens, UniProt P17612). The experiment is described as follows: luminescence ATP detection kinase assay, PKA counter-test. It counts as biochemical.
Experiment [3] has as its target T2, Aurora A (Homo sapiens, UniProt O14965).
T2 sequence (O14965 1-403): T1 sequence (O14965 1-403)
The experiment is described as follows: luminescence ATP detection kinase assay (EasyLite-Kinase), Aurora without TPX2. The conditions noted are these: for IC50: 150 nM Aurora without TPX2, 20 μM ATP, 100 μM Kemptide, 20 min room temperature. It is filed as biochemical. The method, then:
as §1

For experiment [4], the target named is T2, Aurora A. Kind of experiment: phosphatase assay, PP1 treatment of Aurora-A, Western blot. It is filed as biochemical. The conditions noted are these: TPX2 protein 3 μM, Aurora-A 2 μM, PP1 0.5 h at 30° C., FIG. 1E. As for the experimental part:
Samples were diluted in phosphatase buffer (50 mM Tris-HCl pH 7, 0.1 mM EDTA, 1 mM MnCl2, 5 mM caffeine, 5 mM DTT, 0.025% Tween 20) and incubated in the absence or presence of PP1 (α isoform, NEB) for 0.5 h at 30° C. Afterwards proteins were separated by SDS-PAGE and analyzed by Western blotting with anti-Aurora-A or anti-phospho-Aurora-A (Cell Signalling, 1:10000 dilution).
For orientation: Immunoblotting shows a protein as a band on a membrane.

The target of experiment [5] is T2, Aurora A. Kind of experiment: immunoprecipitation from mitotic HeLa cell extract. It counts as binding. The conditions noted are these: GST fusion proteins 1 μM, FIG. 1B.
Procedure: HeLa cells (CCL2; ATCC, Manassas, Va.) were grown in 10% fetal calf serum (FCS) and 2 mM L-glutamine in modified Eagle's medium at 37° C. and 5% CO2. Cells were arrested in S phase using a double thymidine (2 mM) block as described (Stein, 1994) and released from S phase by washing away the thymidine. After 10 h, cells were trypsinized, incubated for 10 min in ice-cold lysis buffer (25 mM Tris pH 7.6, 200 mM NaCl, 1% Triton, protease inhibitors), and centrifuged for 10 min at 15,000 g.
For coating beads with anti-GST, 6 μg of antibody were incubated with 20 μl of protein A-conjugated Dynabeads 280 (Dynal) in a total volume of 100 μl PBS-T (PBS, 0.1% Triton X-100), for at least 1 h at 4° C. The beads were washed twice with PBS-T and twice with HeLa cells lysis buffer or CSF-XB (10 mM Hepes pH 7.7, 50 mM sucrose, 100 mM KCl, 2 mM MgCl2, 0.1 mM CaCl2 and 5 mM EGTA). 50 μl extract was incubated with GST, GST TPX2 1-43, GST TPX2 15-43, GST TPX2 Xenopus or GST TPX2(1-39) Xenopus proteins (final concentrations: 250 nM Xenopus; 1 μM HeLa) in the absence or presence of RanQ69L-GTP (16 μm) for 15 minutes at 20° C. and then added to the beads. […] The samples were then subjected to gel electrophoresis and analyzed by Western blotting with anti-GST, anti-Xenopus TPX2, anti-Xenopus Aurora-A or anti-human Aurora-A.
In experiment [6] the target is T2, Aurora A. Kind of experiment: in vitro kinase assay, phosphorylation of histone H3 (autoradiography). It counts as biochemical. Also noted: were incubated with full length Aurora-A or AuroraΔN in kinase buffer; made in house; host or cells: bacteria (printed only for the full-length protein used as immunogen). Conditions: full length Aurora-A, TPX2 protein at 4 μM, FIG. 1C.

As to `OCc1cn(CCCCc2ccccn2)c2ccc(Oc3ccc(O)cc3)cc12` [(7)], the IC50 in experiment [1] is over 500 µM; in experiment [2], over 500 µM; in experiment [3], 79 µM. The “inhibition of Aurora (in words)” value in experiment [3] is given as “inhibited Aurora significantly”.
With `COC(=O)C(CC(=O)NCc1cn(CCCCc2ccccn2)c2ccc(Oc3ccc(O)cc3)cc12)NC(C)=O` (stereo not drawn) [(12), 3-N-aspartylaminomethyl-5-O-p-hydroxyphenyl-1-N-(4-pyridylbutyl)-indole], the IC50 was 37 µM in experiment [1], over 500 µM in experiment [2] and 37 µM in experiment [3]. Further, in experiment [3], the “inhibition of Aurora (in words)” value was “inhibited Aurora significantly”.
Regarding “TPX2(15-43): shorter construct of human TPX2 encompassing residues 15-43 (DFINFSSLDDEGDTQNIDSWFEEKANLEN)”, in experiment [4], the “protection of Aurora-A from dephosphorylation by PP1” value is “fully dephosphorylated as in the absence of TPX2 altogether”. Besides, the “interaction with Aurora-A in HeLa extract” value in experiment [5] is “unable to do so”.

B1: Full-length TPX2: full-length TPX2 protein, specific activator of Aurora-A (protein, UniProt Q9ULW0 1-747, looked up)
chain: MSQVKSSYSYDAPSDFINFSSLDDEGDTQNIDSWFEEKANLENKLLGKNGTGGLFQGKTPLRKANLQQAIVTPLKPVDNTYYKEAEKENLVEQSIPSNACSSLEVEAAISRKTPAQPQRRSLRLSAQKDLEQKEKHHVKMKAKRCATPVIIDEILPSKKMKVSNNKKKPEEEGSAHQDTAEKNASSPEKAKGRHTVPCMPPAKQKFLKSTEEQELEKSMKMQQEVVEMRKKNEEFKKLALAGIGQPVKKSVSQVTKSVDFHFRTDERIKQHPKNQEEYKEVNFTSELRKHPSSPARVTKGCTIVKPFNLSQGKKRTFDETVSTYVPLAQQVEDFHKRTPNRYHLRSKKDDINLLPSKSSVTKICRDPQTPVLQTKHRARAVTCKSTAELEAEELEKLQQYKFKARELDPRILEGGPILPKKPPVKPPTEPIGFDLEIEKRIQERESKKKTEDEHFEFHSRPCPTKILEDVVGVPEKKVLPITVPKSPAFALKNRIRMPTKEDEEEDEPVVIKAQPVPHYGVPFKPQIPEARTVEICPFSFDSRDKERQLQKEKKIKELQKGEVPKFKALPLPHFDTINLPEKKVKNVTQIEPFCLETDRRGALKAQTWKHQLEEELRQQKEAACFKARPNTVISQEPFVPKKEKKSVAEGLSGSLVQEPFQLATEKRAKERQELEKRMAEVEAQKAQQLEEARLQEEEQKKEELARLRRELVHKANPIRKYQGLEIKSSDQPLTVPVSPKFSTRFHC
modifications: full-length
On to B1, for which, in experiment [4], the “protection of Aurora-A from dephosphorylation by PP1” value was “prevents dephosphorylation of Thr288AUR”. Also, in experiment [6], the “stimulation of histone H3 phosphorylation by Aurora-A” value is on record as “increases the activity of the kinase, but appears less effective than the fragment”.
